Test results taken from EP1247803A2, “Indolinone compounds suitable for modulation of protein kinases” (Sugen, Inc., priority 1996, dated 1998).

How the values were obtained:
PDGF-R = PDGF-R (Homo sapiens, UniProt P09619); test: PDGF-R ELISA; type: cell-based
Description: A PDGF-R ELISA is described in International Patent Publication No. WO 96/40116, published December 19, 1996 by Tang et al.

EGFR = target: T1, EGFR (Homo sapiens, UniProt P00533); test: EGFR ELISA assay (in vitro kinase activity, EGFR captured from A431 cell lysate); type: biochemical; design: concentration or dose not given beside the values
T1 construct: Add 7 ug A431 cell lysate per well (EGFR source); endogenous in cells; host or cells: A431
Procedure, shortened: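 EGFR from A431 lysate was captured on anti-EGFR antibody-coated plates and preincubated with compounds for 30 min. Autophosphorylation ran 5 min with 3 uM ATP and 5 mM MnCl2 (final), stopped with 20 mM EDTA. Phosphotyrosine was detected by anti-pTyr ELISA with ABTS/H2O2, read at 410 nm.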

MET = MET biochemical kinase assay; design: species or system human; concentration or dose not given beside the values
Procedure, shortened: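 Colorimetric signal from an HRP-linked anti-phosphotyrosine antibody with TMB measures phosphate incorporated into immobilised MET. The receptor is pulled from lysates by a polyclonal antibody against its cytoplasmic domain, then reacts in ATP- and metal-containing buffer with test compound.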

T1 sequence (P00533 25-1210): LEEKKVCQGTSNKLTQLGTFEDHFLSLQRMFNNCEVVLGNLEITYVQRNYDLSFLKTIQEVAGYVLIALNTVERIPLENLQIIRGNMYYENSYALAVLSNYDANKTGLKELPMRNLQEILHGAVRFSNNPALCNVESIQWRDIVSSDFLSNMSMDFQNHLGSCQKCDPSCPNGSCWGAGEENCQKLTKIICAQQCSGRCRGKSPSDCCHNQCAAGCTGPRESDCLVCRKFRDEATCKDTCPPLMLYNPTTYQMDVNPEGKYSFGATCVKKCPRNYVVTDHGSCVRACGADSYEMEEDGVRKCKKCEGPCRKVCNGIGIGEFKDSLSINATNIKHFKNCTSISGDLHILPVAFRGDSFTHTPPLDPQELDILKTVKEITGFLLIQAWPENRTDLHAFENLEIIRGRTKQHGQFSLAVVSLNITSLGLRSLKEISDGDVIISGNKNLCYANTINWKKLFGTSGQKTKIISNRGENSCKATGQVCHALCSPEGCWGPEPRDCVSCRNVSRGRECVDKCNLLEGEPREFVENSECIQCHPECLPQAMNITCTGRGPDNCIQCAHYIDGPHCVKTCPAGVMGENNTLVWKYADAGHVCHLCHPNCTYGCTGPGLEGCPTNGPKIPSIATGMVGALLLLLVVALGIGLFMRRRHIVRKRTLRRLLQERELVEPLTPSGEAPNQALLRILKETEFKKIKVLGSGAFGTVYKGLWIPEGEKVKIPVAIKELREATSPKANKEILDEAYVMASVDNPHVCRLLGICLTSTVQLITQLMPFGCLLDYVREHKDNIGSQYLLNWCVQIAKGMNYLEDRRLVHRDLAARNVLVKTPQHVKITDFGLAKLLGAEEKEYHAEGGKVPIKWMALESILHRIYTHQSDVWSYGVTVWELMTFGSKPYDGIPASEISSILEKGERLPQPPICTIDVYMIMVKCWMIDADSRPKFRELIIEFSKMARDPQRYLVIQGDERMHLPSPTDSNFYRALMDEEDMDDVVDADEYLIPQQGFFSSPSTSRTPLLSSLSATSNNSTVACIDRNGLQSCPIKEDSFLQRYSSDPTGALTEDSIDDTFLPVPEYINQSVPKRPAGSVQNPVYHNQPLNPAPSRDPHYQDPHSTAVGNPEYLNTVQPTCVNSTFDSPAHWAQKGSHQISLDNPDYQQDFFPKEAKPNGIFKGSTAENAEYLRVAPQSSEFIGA
Sequence of PDGF-R (P09619 33-1106, species assumed): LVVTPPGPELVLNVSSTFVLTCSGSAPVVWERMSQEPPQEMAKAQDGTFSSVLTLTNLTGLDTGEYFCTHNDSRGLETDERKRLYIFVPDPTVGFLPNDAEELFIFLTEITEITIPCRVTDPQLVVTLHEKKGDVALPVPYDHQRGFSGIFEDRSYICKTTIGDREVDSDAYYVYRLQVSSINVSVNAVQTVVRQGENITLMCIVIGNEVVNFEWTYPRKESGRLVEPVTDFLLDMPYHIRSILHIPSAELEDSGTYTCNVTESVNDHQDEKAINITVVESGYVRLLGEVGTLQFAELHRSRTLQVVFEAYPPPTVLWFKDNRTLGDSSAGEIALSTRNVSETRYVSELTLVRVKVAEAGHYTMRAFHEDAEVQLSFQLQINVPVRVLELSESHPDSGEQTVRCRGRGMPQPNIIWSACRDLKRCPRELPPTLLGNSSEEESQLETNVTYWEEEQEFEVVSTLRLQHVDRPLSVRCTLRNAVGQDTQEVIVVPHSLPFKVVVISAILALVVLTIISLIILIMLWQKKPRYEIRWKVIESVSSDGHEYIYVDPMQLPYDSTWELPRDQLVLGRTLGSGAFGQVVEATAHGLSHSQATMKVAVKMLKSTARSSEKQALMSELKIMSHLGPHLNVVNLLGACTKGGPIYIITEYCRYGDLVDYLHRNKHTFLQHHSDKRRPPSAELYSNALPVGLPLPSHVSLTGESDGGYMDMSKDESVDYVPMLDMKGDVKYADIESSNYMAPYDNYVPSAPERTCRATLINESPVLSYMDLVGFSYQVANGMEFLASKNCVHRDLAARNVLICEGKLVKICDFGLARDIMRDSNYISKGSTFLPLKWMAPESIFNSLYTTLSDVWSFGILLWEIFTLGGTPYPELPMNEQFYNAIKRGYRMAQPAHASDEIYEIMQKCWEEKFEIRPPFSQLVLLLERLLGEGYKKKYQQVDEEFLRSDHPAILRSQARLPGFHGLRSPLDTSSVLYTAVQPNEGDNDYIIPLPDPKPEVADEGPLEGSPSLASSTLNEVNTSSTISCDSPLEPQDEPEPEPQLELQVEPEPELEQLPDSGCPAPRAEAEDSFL

Structure (SMILES)	PDGF Kinase %Inhibition (PDGF-R)	Biochem EGFR %Inhibition (EGFR)	Met Kinase % Inhibition (MET)
O=C1Nc2ccc(S(=O)(=O)Nc3ccc(C(F)(F)F)cc3)cc2C1=Cc1ccc(F)cc1F [10722/E06]	32.9%	7.6%	71.6%
O=C1Nc2ccc(I)cc2C1=Cc1ccc(C(F)(F)F)cc1 [10722/B11]	25.5%	-15.5%	83.0%
Cc1cc(C=C2C(=O)Nc3ccc(S(=O)(=O)Nc4ccc(C(F)(F)F)cc4)cc32)cc(C)c1O [10722/E07]	40.9%	28.7%	71.6%
CCCCN(CCCC)c1ccc(C=C2C(=O)Nc3c(Br)cc(Br)cc32)cc1 [10722/A10]	15.2%	-4.2%	79.0%
Cc1cc(C)c(C=C2C(=O)Nc3ccc(S(=O)(=O)Nc4ccc(C(F)(F)F)cc4)cc32)[nH]1 [10721/E08]		29.8%	39.5%
O=C1Nc2ccc(CCCl)cc2C1=Cc1cc([N+](=O)[O-])cc(CCl)c1O [10721/G06]		23.2%	39.5%
Cn1c(C=C2C(=O)Nc3ccc(CCCl)cc32)nc2ccccc21 [10721/G02]		23.6%	7.9%
Cc1cc(C)c(C=C2C(=O)Nc3ccc(CCCl)cc32)[nH]1 [10721/G08]		12.8%	-2.4%
CC(C)(C)c1cc(C=C2C(=O)Nc3ccc(CCCl)cc32)ccc1O [10721/G09]		14.9%	5.1%
CNS(=O)(=O)c1ccc2c(c1)C(=Cc1cccn1C)C(=O)N2 [10717/D04]		4.9%	21.0%
CC(C)(C)c1cc(C=C2C(=O)Nc3ccc(S(=O)(=O)N4CCOCC4)cc32)cc(C(C)(C)C)c1O [10721/F11]		95.9%	78.2%
O=C1Nc2ccc(CCCl)cc2C1=Cc1cc2c([nH]1)CCCC2 [10721/G05]		7.7%	8.6%
O=C1Nc2ccc(S(=O)(=O)N3CCOCC3)cc2C1=Cc1cc2c([nH]1)CCCC2 [10721/F05]		20.5%	67.8%
Cn1cc(Cl)c(C=C2C(=O)Nc3ccc(CCCl)cc32)n1 [10721/G03]		23.4%	25.3%
CC(C)(C)c1cc(C=C2C(=O)Nc3ccc(S(=O)(=O)N4CCOCC4)cc32)ccc1O [10721/F09]		7.0%	52.5%
CC(C)(C)c1cc(C=C2C(=O)Nc3ccc(S(=O)(=O)Nc4ccc(C(F)(F)F)cc4)cc32)ccc1O [10721/E09]		42.5%	0.7%
Cn1cc(Cl)c(C=C2C(=O)Nc3ccc(S(=O)(=O)N4CCOCC4)cc32)n1 [10721/F03]		7.0%	40.6%
O=C1Nc2ccc(S(=O)(=O)Nc3ccc(C(F)(F)F)cc3)cc2C1=Cc1ccc(Cl)s1 [10721/E07]		37.7%	43.6%
CC(C)(C)c1cc(C=C2C(=O)Nc3ccc(CCCl)cc32)cc(C(C)(C)C)c1O [10721/G11]		0.4%	-0.0%
Cc1cc(C=C2C(=O)Nc3ccc(CCCl)cc32)sc1C [10721/G04]		64.6%	90.3%
Cc1cc(C=C2C(=O)Nc3ccc(S(=O)(=O)N4CCOCC4)cc32)sc1C [10721/F04]		0.0%	26.0%
CCOc1ccccc1C=C1C(=O)Nc2ccc(S(=O)(=O)NC)cc21 [10717/D02]		10.1%	28.6%
Cc1cc(C)c(C=C2C(=O)Nc3ccc(S(=O)(=O)N4CCOCC4)cc32)[nH]1 [10721/F08]		37.3%	76.1%
